US5496947A, “Quinolone carboxylic acid derivatives” (Dong Wha Pharmaceutical Industrial Co., Ltd., priority 1994, dated 1996)
Like-named read-outs stand apart in the source and are kept apart here.

Assays:
Format in all cases: cell-based
[1] = system: Streptococcus faecalis ATCC 19433; assay: MIC, 2-fold dilution method in micro-well plate, S. faecalis ATCC 19433; settings: Enterococcus faecalis; S. faecalis ATCC19433, 37° C.; read-out: Minimum Inhibitory Concentration
Protocol: (§1) The in vitro antibiotic activity of the present compound is measured using 2-fold dilution method with a micro-well plate and the bacteria are inoculated in about 10^5 cfu/ml after an overnight culture in a brain-heart infusion (BHI) broth at 37° C. The novel compounds of the present invention are converted to a hydrochloride salt form and diluted with a sterilized distilled water to make 10 mg/ml aqueous solution. After the mother liquor wherein the compound is diluted to the two-fold concentration has been obtained in the form of an aqueous solution, the respective 0.1 ml of diluted liquor is transferred to a well and is inoculated with 0.1 ml of the culture fluid to make about (10^5 -10^6)/2 cfu/ml.
(§2) After cultivation at 37° C., the minimum inhibitory concentration (MIC) is measured and recorded in Table I-V.
(§3) Table I-V show the minimum inhibitory concentrations (MIC).
Streptococcus faecalis ATCC 19433

[2] = system: Enterobacter aerogenes ATCC 13048; assay: MIC, 2-fold dilution method in micro-well plate, E. aerogenes; settings: Klebsiella aerogenes
Protocol: as §1, §2, §3
Enterobacter aerogenes ATCC 13048

[3] = system: Citrobacter freundii ATCC 8090; assay: MIC, 2-fold dilution method in micro-well plate, C. freundii
Protocol: as §1, §2, §3
Citrobacter freundii ATCC 8090

[4] = system: Serratia marcescens ATCC 8100; assay: MIC, 2-fold dilution method in micro-well plate, S. marcescens
Protocol: as §1, §2, §3
Serratia marcescens ATCC 8100

[5] = system: Haemophilus influenza ATCC 35056; assay: MIC, 2-fold dilution method in micro-well plate, H. influenzae; settings: H. influenzae ATCC35056, 37° C.; read-out: Minimum Inhibitory Concentration
Protocol: as §1, §2, §3
Haemophilus influenza ATCC 35056

[6] = system: Proteus vulgaris ATCC 13315; assay: MIC, 2-fold dilution method in micro-well plate, P. vulgaris
Protocol: as §1, §2, §3
Proteus vulgaris ATCC 13315

[7] = system: Escherichia coli ATCC 25922; assay: MIC, 2-fold dilution method in micro-well plate, E. coli
Protocol: as §1, §2, §3
Escherichia coli ATCC 25922

[8] = system: Enterobacter cloacae; assay: MIC, 2-fold dilution method in micro-well plate, E. cloacae; settings: read-out: Minimum Inhibitory Concentration
Protocol: as §1, §2, §3
Enterobacter cloacae ATCC 23355

[9] = system: Acinetobacter calcoaceticus; assay: MIC, 2-fold dilution method in micro-well plate, A. calcoaceticus
Protocol: as §1, §2
Table I-V show the minimum inhibitory concentrations (MIC). […]

[10] = system: Salmonella typhimurium ATCC 14028; assay: MIC, 2-fold dilution method in micro-well plate, S. typhimurium; settings: Salmonella enterica, read-out: Minimum Inhibitory Concentration
Protocol: as §1, §2, §3
Salmonella typhimurium ATCC 14028

[11] = system: Pseudomonas aeruginosa ATCC 27853; assay: MIC, 2-fold dilution method in micro-well plate, P. aeruginosa; settings: P. aerugirnosa ATCC27853, 37° C., read-out: Minimum Inhibitory Concentration
Protocol: as §1, §2, §3
Pseudomonas aeruginosa ATCC 27853

[12] = system: Shigella sonnei ATCC 25931; assay: MIC, 2-fold dilution method in micro-well plate, S. sonnei; settings: S. sonnei ATCC25931, 37° C., read-out: Minimum Inhibitory Concentration
Protocol: as §1, §2, §3
Shigella sonnei ATCC 25931

[13] = system: Streptococcus pyrogens ATCC 19615; assay: MIC, 2-fold dilution method in micro-well plate, S. pyrogens; settings: S. pyrogenes ATCC19615, 37° C., read-out: Minimum Inhibitory Concentration
Protocol: as §1, §2, §3
Streptococcus pyrogens ATCC 19615

[14] = system: Streptococcus pneumoniae ATCC 6303; assay: MIC, 2-fold dilution method in micro-well plate, S. pneumoniae; settings: S. pneuinoniae ATCC6303, 37° C., read-out: Minimum Inhibitory Concentration
Protocol: as §1, §2, §3
Streptococcus pneumoniae ATCC 6303

[15] = system: Shigella flexneri ATCC 12022; assay: MIC, 2-fold dilution method in micro-well plate, S. flexneri; settings: S. flexneri ATCC12022, 37° C., read-out: Minimum Inhibitory Concentration
Protocol: as §1, §2, §3
Shigella flexneri ATCC 12022

[16] = system: Streptococcus faecalis ATCC 29212; assay: MIC, 2-fold dilution method in micro-well plate, S. faecalis ATCC 29212; settings: Enterococcus faecalis; S. faecalis ATCC29212, 37° C.; read-out: Minimum Inhibitory Concentration
Protocol: as §1, §2, §3
Streptococcus faecalis ATCC 29212

[17] = system: Klebsiella pneumoniae ATCC 13883; assay: MIC, 2-fold dilution method in micro-well plate, K. pneumoniae
Protocol: as §1, §2, §3
Klebsiella pneumoniae ATCC 13883

[18] = ATCC13048, read-out: Minimum Inhibitory Concentration
[19] = ATCC8090, read-out: Minimum Inhibitory Concentration
[20] = ATCC8100, read-out: Minimum Inhibitory Concentration
[21] = ATCC13315, read-out: Minimum Inhibitory Concentration
[22] = ATCC25922, read-out: Minimum Inhibitory Concentration
[23] = ATCC13883, read-out: Minimum Inhibitory Concentration
[24] = S. marcescens ATCC8100, 37° C., read-out: Minimum Inhibitory Concentration
[25] = A. calcoaceticus ATCC8090 (as in tables), 37° C., read-out: Minimum Inhibitory Concentration
[26] = E. aerogenes ATCC13048, 37° C., read-out: Minimum Inhibitory Concentration
[27] = P. vulgaris ATCC13315, 37° C., read-out: Minimum Inhibitory Concentration
[28] = E. coli ATCC25922, 37° C., read-out: Minimum Inhibitory Concentration
[29] = S. typhisurium ATCC14028, 37° C.
[30] = K. pneumoniae ATCC13883, 37° C., read-out: Minimum Inhibitory Concentration

Q: What does the source list for `CN1CCN(c2c(F)cc3c(=O)c(C(=O)O)cn(-c4ccc(F)cn4)c3c2F)CC1.Cl` [Example 24, 1-(5-fluoro-2-pyridyl)-6,8-difluoro-7-(4-methyl-1-piperazinyl)-1,4-dihydro-4-oxoquinoline-3-carboxylic acid hydrochloride]?
A: MIC [1]: 5 µg/mL; MIC [2, 18]: 0.625 µg/mL; MIC [3, 19]: 0.625 µg/mL; MIC [4, 20]: 0.625 µg/mL; MIC [5]: 0.313 µg/mL; MIC [6, 21]: 0.625 µg/mL; MIC [7, 22]: 0.625 µg/mL; MIC [8]: 0.625 µg/mL; MIC [9, 19]: 0.625 µg/mL; MIC [10]: 0.313 µg/mL; MIC [11]: 0.625 µg/mL; MIC [12]: 0.156 µg/mL; MIC [13]: 10 µg/mL; MIC [14]: 5 µg/mL; MIC [15]: 0.625 µg/mL; MIC [16]: 2.5 µg/mL; MIC [17, 23]: 0.625 µg/mL

Q: Which MIC [1] does the source give for `CC1CN(c2c(F)cc3c(=O)c(C(=O)O)cn(-c4ccc(F)cn4)c3c2F)CCN1.Cl` (centres unmarked) [Example 25, 1-(5-fluoro-2-pyridyl)-6,8-difluoro-7-(3-methyl-1-piperazinyl)-1,4-dihydro-4-oxoquinoline-3-carboxylic acid hydrochloride] here?
A: 5 µg/mL

Q: What about the MIC [2, 18] of the same molecule?
A: 0.625 µg/mL

Q: What about the MIC [3, 19] of the same molecule?
A: 0.625 µg/mL

Q: And the MIC [4, 24]?
A: 1.25 µg/mL

Q: What about the MIC [5] of the same molecule?
A: 0.625 µg/mL

Q: And the MIC [6, 21]?
A: 0.625 µg/mL

Q: What about the MIC [7, 22] of the same molecule?
A: 0.625 µg/mL

Q: And the MIC [8]?
A: 0.625 µg/mL

Q: And the MIC [9, 25]?
A: 1.25 µg/mL

Q: And the MIC [10]?
A: 0.625 µg/mL

Q: And the MIC [11]?
A: 0.313 µg/mL

Q: And the MIC [12]?
A: 0.156 µg/mL

Q: What about the MIC [13] of the same molecule?
A: 10 µg/mL

Q: And the MIC [14]?
A: 5 µg/mL

Q: And the MIC [15]?
A: 0.156 µg/mL

Q: And the MIC [16]?
A: 5 µg/mL

Q: What about the MIC [17, 23] of the same molecule?
A: 0.625 µg/mL

Q: How did the MIC [1] turn out when `CC1CN(c2c(F)cc3c(=O)c(C(=O)O)cn(-c4ccc(F)cn4)c3c2F)CC(C)N1.Cl` (centres unmarked) [Example 26, 1-(5-fluoro-2-pyridyl)-6,8-difluoro-7-(3,5-dimethyl-1-piperazinyl)-1,4-dihydro-4-oxoquinoline-3-carboxylic acid hydrochloride] was run?
A: 5 µg/mL

Q: And the MIC [2, 26]?
A: 0.625 µg/mL

Q: And the MIC [3, 19]?
A: 1.25 µg/mL

Q: What about the MIC [4, 20] of the same molecule?
A: 1.25 µg/mL

Q: And the MIC [5]?
A: 1.25 µg/mL

Q: What about the MIC [6, 27] of the same molecule?
A: 0.255 µg/mL

Q: And the MIC [7, 28]?
A: 0.625 µg/mL

Q: What about the MIC [8] of the same molecule?
A: 1.25 µg/mL

Q: And the MIC [9, 19]?
A: 1.25 µg/mL

Q: What about the MIC [10, 29] of the same molecule?
A: 0.625 µg/mL

Q: And the MIC [11]?
A: 0.625 µg/mL

Q: And the MIC [12]?
A: 0.313 µg/mL

Q: And the MIC [13]?
A: 10 µg/mL

Q: And the MIC [14]?
A: 5 µg/mL

Q: And the MIC [15]?
A: 0.313 µg/mL

Q: And the MIC [16]?
A: 5 µg/mL

Q: And the MIC [17, 30]?
A: 0.625 µg/mL

Q: `Cl.NC1CCN(c2c(F)cc3c(=O)c(C(=O)O)cn(-c4ccc(F)cn4)c3c2F)C1` (centres unmarked) [Example 27, 1-(5-fluoro-2-pyridyl)-6,8-difluoro-7-(3-amino-1-pyrrolidinyl)-1,4-dihydro-4-oxoquinoline-3-carboxylic acid hydrochloride] was tested. Which MIC [1] did it give?
A: 1.25 µg/mL

Q: And the MIC [2, 26]?
A: 0.156 µg/mL

Q: What about the MIC ([3]; C. freundii ATCC8090, 37° C., read-out: Minimum Inhibitory Concentration) of the same molecule?
A: 0.156 µg/mL

Q: And the MIC [4, 24]?
A: 0.313 µg/mL

Q: What about the MIC [5] of the same molecule?
A: 0.078 µg/mL

Q: And the MIC [6, 27]?
A: 0.156 µg/mL

Q: And the MIC [7, 28]?
A: 0.078 µg/mL

Q: And the MIC ([8]; E. cloacae ATCC23355 (as in tables), 37° C.)?
A: 0.313 µg/mL

Q: What about the MIC [9, 25] of the same molecule?
A: 0.313 µg/mL

Q: And the MIC [10, 29]?
A: 0.078 µg/mL

Q: What about the MIC [11] of the same molecule?
A: 0.313 µg/mL

Q: What about the MIC [12] of the same molecule?
A: 0.005 µg/mL

Q: What about the MIC [13] of the same molecule?
A: 2.5 µg/mL

Q: What about the MIC [14] of the same molecule?
A: 2.5 µg/mL

Q: And the MIC [15]?
A: 0.078 µg/mL

Q: What about the MIC [16] of the same molecule?
A: 2.5 µg/mL

Q: And the MIC [17, 30]?
A: 0.156 µg/mL
